Converted amounts (≈) assume the structure as drawn.
Experiments:
Test in all cases: antimicrobial activity, MIC, standard process of Japan Society of Chemotherapy
Format in all cases: cell-based
Pr. vulgaris, 3167 = conditions: for MIC: Proteus vulgaris, 3167, Pr. vulgaris, read-out: minimum growth inhibitory concentration (MIC); for minimum growth inhibitory concentration (MIC): Pr. vulgaris
Experimental: (§1) The antimicrobial activities of the compounds of the present invention were determined according to a standard process designated by the Japan Society of Chemotherapy and the minimum growth inhibitory concentrations (MIC) (μg/ml) the compounds were determined.

[1] = test system: Str. faecalis, ATCC 19433; conditions: for MIC: Enterococcus faecalis, ATCC19433, Str. faecalis, read-out: minimum growth inhibitory concentration (MIC); for minimum growth inhibitory concentration (MIC): Str. faecalis
Experimental: as §1

Ps. aeruginosa, 2128 = conditions: for minimum growth inhibitory concentration (MIC): Ps. aeruginosa; for MIC: Pseudomonas aeruginosa, 2128, Ps. aeruginosa, read-out: minimum growth inhibitory concentration (MIC)
Experimental: as §1

E. coli, NIHJ = conditions: for MIC: Escherichia coli, read-out: minimum growth inhibitory concentration (MIC)
Experimental: as §1

Ps. cepacia, IID1340 = conditions: for MIC: Burkholderia cepacia, IID1340, Ps. cepacia, read-out: minimum growth inhibitory concentration (MIC); for minimum growth inhibitory concentration (MIC): Ps. cepacia
Experimental: as §1

Pr. mirabilis, IF03849 = conditions: for MIC: Proteus mirabilis, IF03849, Pr. mirabilis, read-out: minimum growth inhibitory concentration (MIC); for minimum growth inhibitory concentration (MIC): Pr. mirabilis
Experimental: as §1

Ser. marcescens, 13001 = conditions: for minimum growth inhibitory concentration (MIC): Ser. marcescens; for MIC: Serratia marcescens, 13001, Ser. marcescens, read-out: minimum growth inhibitory concentration (MIC)
Experimental: as §1

S. epidermidis, 56500 = conditions: for MIC: Staphylococcus epidermidis, 56500, S. epidermidis, read-out: minimum growth inhibitory concentration (MIC); for minimum growth inhibitory concentration (MIC): S. epidermidis
Experimental: as §1

Str. pyogenes, G-36 = conditions: for MIC: Streptococcus pyogenes, G36, Str. pyogenes, read-out: minimum growth inhibitory concentration (MIC); for minimum growth inhibitory concentration (MIC): Str. pyogenes
Experimental: as §1

S. aureus, 209P = conditions: for MIC: Staphylococcus aureus, read-out: minimum growth inhibitory concentration (MIC)
Experimental: as §1

Sh. flexneri, 2a5503 = conditions: for MIC: Shigella flexneri, read-out: minimum growth inhibitory concentration (MIC)
Experimental: as §1

Ps. maltophilia, IID1275 = conditions: for MIC: Stenotrophomonas maltophilia, IID1275, Ps. maltophilia, read-out: minimum growth inhibitory concentration (MIC); for minimum growth inhibitory concentration (MIC): Ps. maltophilia
Experimental: as §1

Ps. aeruginosa, 2063 = conditions: for minimum growth inhibitory concentration (MIC): Ps. aeruginosa; for MIC: Pseudomonas aeruginosa, 2063, Ps. aeruginosa, read-out: minimum growth inhibitory concentration (MIC)
Experimental: as §1

Molecule	MIC (Pr. vulgaris, 3167) [µg/mL]	MIC [1] [µg/mL]	minimum growth inhibitory concentration (MIC) (Ps. aeruginosa, 2128) [µg/mL]	MIC (E. coli, NIHJ) [µg/mL]	MIC (Ps. cepacia, IID1340) [µg/mL]	MIC (Pr. mirabilis, IF03849) [µg/mL]	minimum growth inhibitory concentration (MIC) (Ser. marcescens, 13001) [µg/mL]	MIC (S. epidermidis, 56500) [µg/mL]	MIC (Str. pyogenes, G-36) [µg/mL]	MIC (S. aureus, 209P) [µg/mL]	MIC (Sh. flexneri, 2a5503) [µg/mL]	MIC (Ps. maltophilia, IID1275) [µg/mL]	minimum growth inhibitory concentration (MIC) (Ps. aeruginosa, 2063) [µg/mL]	MIC (Ps. aeruginosa, 2128) [µg/mL]	MIC (Ser. marcescens, 13001) [µg/mL]	MIC (Ps. aeruginosa, 2063) [µg/mL]	minimum growth inhibitory concentration (MIC) (Pr. vulgaris, 3167) [µg/mL]	minimum growth inhibitory concentration (MIC) [1] [µg/mL]	minimum growth inhibitory concentration (MIC) (Ps. cepacia, IID1340) [µg/mL]	minimum growth inhibitory concentration (MIC) (Pr. mirabilis, IF03849) [µg/mL]	further results
CC(N)C1CCN(c2c(F)cc3c(=O)c(C(=O)O)cn(C4CC4)c3c2F)C1 (single isomer, unassigned) [Example 1, 7-[3-(1-Aminoethyl)-1-pyrrolidinyl]-1-cyclopropyl-6,8-difluoro-1,4-dihydro-4-oxoquinoline-3-carboxylic acid]	0.1 (≈ 0.265 µM)	0.1 (≈ 0.265 µM)	0.20	≤ 0.05	0.78 (≈ 2.07 µM)	0.1 (≈ 0.265 µM)	0.20	0.1 (≈ 0.265 µM)	0.1 (≈ 0.265 µM)	0.1 (≈ 0.265 µM)	≤ 0.05	0.2 (≈ 0.53 µM)	0.78	–	–	–	–	–	–	–	–
CNC(C)(C)C1CCN(c2c(F)cc3c(=O)c(C(=O)O)cn(C4CC4)c3c2F)C1 (stereo not drawn) [Example 14, 1-Cyclopropyl-6,8-difluoro-1,4-dihydro-7-[3-(1-methyl-1-methylamino)ethyl-1-pyrrolidinyl]-4-oxoquinoline-3-carboxylic acid]	0.2 (≈ 0.493 µM)	0.1 (≈ 0.247 µM)	–	≤ 0.05	1.56 (≈ 3.85 µM)	0.2 (≈ 0.493 µM)	–	0.2 (≈ 0.493 µM)	0.1 (≈ 0.247 µM)	0.2 (≈ 0.493 µM)	≤ 0.05	0.39 (≈ 0.962 µM)	–	0.39 (≈ 0.962 µM)	0.39 (≈ 0.962 µM)	3.13 (≈ 7.72 µM)	–	–	–	–	–
CCC(N)C1CCN(c2c(F)cc3c(=O)c(C(=O)O)cn(C4CC4)c3c2F)C1 (stereo not drawn) [Example 22]	–	–	0.20	–	–	–	0.10	–	–	–	–	–	0.39	–	–	–	≤ 0.05	0.20	0.20	0.10	minimum growth inhibitory concentration (MIC) (E. coli, NIHJ): ≤ 0.05 µg/mL; minimum growth inhibitory concentration (MIC) (S. epidermidis, 56500): ≤ 0.05 µg/mL; minimum growth inhibitory concentration (MIC) (Str. pyogenes, G-36): 0.20 µg/mL; minimum growth inhibitory concentration (MIC) (S. aureus, 209P): ≤ 0.05 µg/mL; minimum growth inhibitory concentration (MIC) (Sh. flexneri, 2a5503): ≤ 0.05 µg/mL; minimum growth inhibitory concentration (MIC) (Ps. maltophilia, IID1275): 0.20 µg/mL
CC(N)C1CCN(c2nc3c(cc2F)c(=O)c(C(=O)O)cn3C2CC2)C1 (stereo not drawn) [Example 19]	–	–	≤ 0.05	–	–	–	≤ 0.05	–	–	–	–	–	0.20	–	–	–	≤ 0.05	0.10	0.39	0.10	minimum growth inhibitory concentration (MIC) (E. coli, NIHJ): ≤ 0.05 µg/mL; minimum growth inhibitory concentration (MIC) (S. epidermidis, 56500): ≤ 0.05 µg/mL; minimum growth inhibitory concentration (MIC) (Str. pyogenes, G-36): 0.20 µg/mL; minimum growth inhibitory concentration (MIC) (S. aureus, 209P): ≤ 0.05 µg/mL; minimum growth inhibitory concentration (MIC) (Sh. flexneri, 2a5503): ≤ 0.05 µg/mL; minimum growth inhibitory concentration (MIC) (Ps. maltophilia, IID1275): 0.20 µg/mL
1-Cyclopropyl-6,8-difluoro-1,4-dihydro-7-[3-(2S)-pyrrolidinyl)-1-pyrrolidinyl)-1-pyrrolidinyl]-4-oxoquinoline-3-carboxylic acid [Example 17]	–	–	0.20	–	–	–	0.10	–	–	–	–	–	0.39	–	–	–	0.10	0.10	0.78	0.20	minimum growth inhibitory concentration (MIC) (E. coli, NIHJ): ≤ 0.05 µg/mL; minimum growth inhibitory concentration (MIC) (S. epidermidis, 56500): 0.10 µg/mL; minimum growth inhibitory concentration (MIC) (Str. pyogenes, G-36): 0.10 µg/mL; minimum growth inhibitory concentration (MIC) (S. aureus, 209P): ≤ 0.05 µg/mL; minimum growth inhibitory concentration (MIC) (Sh. flexneri, 2a5503): ≤ 0.05 µg/mL; minimum growth inhibitory concentration (MIC) (Ps. maltophilia, IID1275): 0.39 µg/mL
CCC(N)C1CCN(c2c(F)cc3c(=O)c(C(=O)O)cn(CC)c3c2F)C1 (stereo not drawn) [Example 10, 7-[3-(1-Aminopropyl)-1-pyrrolindinyl]-1-ethyl-6,8-difluoro-1,4-dihydro-4-oxoquinoline-3-carboxylic acid]	0.1 (≈ 0.264 µM)	≤ 0.05	–	≤ 0.05	1.56 (≈ 4.11 µM)	0.2 (≈ 0.527 µM)	–	0.1 (≈ 0.264 µM)	≤ 0.05	≤ 0.05	≤ 0.05	0.39 (≈ 1.03 µM)	–	6.39 (≈ 16.8 µM)	0.2 (≈ 0.527 µM)	1.56 (≈ 4.11 µM)	–	–	–	–	–
CCC(N)C1CCN(c2c(F)cc3c(=O)c(C(=O)O)cn(C4CC4)c3c2F)C1 (single isomer, unassigned) [Example 21, 1-Cyclopropyl-6,8-difluoro-7-[3-(1aminopropyl)-1-pyrrolidinyl]-1,4-dihydro-4-oxoquinoline-3-carboxylic acid]	≤ 0.05	≤ 0.05	–	≤ 0.05	0.2 (≈ 0.511 µM)	0.1 (≈ 0.255 µM)	–	≤ 0.05	≤ 0.05	≤ 0.05	≤ 0.05	≤ 0.05	–	0.1 (≈ 0.255 µM)	≤ 0.05	0.2 (≈ 0.511 µM)	–	–	–	–	–
CCn1cc(C(=O)O)c(=O)c2cc(F)c(N3CCC(C(C)(C)N)C3)c(F)c21 (stereo not drawn) [Example 12, 7-[3-(1-amino-1-methyl)ethyl-1-pyrrolidinyl]-1-ethyl-6,8-difluoro-1,4-dihydro-4-oxoquinoline-3-carboxylic acid]	0.2 (≈ 0.527 µM)	0.1 (≈ 0.264 µM)	–	≤ 0.05	1.56 (≈ 4.11 µM)	0.39 (≈ 1.03 µM)	–	0.1 (≈ 0.264 µM)	0.1 (≈ 0.264 µM)	≤ 0.05	≤ 0.05	0.39 (≈ 1.03 µM)	–	0.39 (≈ 1.03 µM)	0.39 (≈ 1.03 µM)	1.56 (≈ 4.11 µM)	–	–	–	–	–
CC(N)C1CCN(c2nc3c(cc2F)c(=O)c(C(=O)O)cn3C2CC2)C1 (stereo not drawn) [Example 5, 7-[3-(1-Aminoethyl)-1-pyrrolidinyl]-1-cyclopropyl-6-fluoro-1,4-dihydro-4-oxo-1,8-naphthyridine-3-carboxylic acid]	0.05 (≈ 0.139 µM)	0.2 (≈ 0.555 µM)	6.20	≤ 0.05	–	–	0.20	≤ 0.05	0.39 (≈ 1.08 µM)	≤ 0.05	≤ 0.05	0.39 (≈ 1.08 µM)	0.78	–	–	–	–	–	1.56	0.39	–
CCC(N)C1CCN(c2c(F)cc3c(=O)c(C(=O)O)cn(CC)c3c2F)C1 (single isomer, unassigned) [Example 20, 1-ethyl-6,8-difluoro-7-[3-(1-aminopropyl)-1-pyrrolidinyl]-1,4-dihydro-4-oxoquinoline-3-carboxylic acid]	≤ 0.05	≤ 0.05	–	≤ 0.05	0.39 (≈ 1.03 µM)	0.1 (≈ 0.264 µM)	–	≤ 0.05	≤ 0.05	≤ 0.05	≤ 0.05	0.2 (≈ 0.527 µM)	–	0.2 (≈ 0.527 µM)	0.1 (≈ 0.264 µM)	0.39 (≈ 1.03 µM)	–	–	–	–	–
CC(N)C1CCN(c2nc3c(cc2F)c(=O)c(C(=O)O)cn3C2CC2)C1 (stereo not drawn) [Example 18, 7-[3-(1-Aminoethyl)-1-pyrrolidinyl]-1-1-cyclopropyl-6-fluoro-1,4-dihydro-4-oxo-1,8-naphthylidine-3-carboxylic acid]	–	–	0.20	–	–	–	0.20	–	–	–	–	–	0.39	–	–	–	0.10	0.20	0.39	0.20	minimum growth inhibitory concentration (MIC) (E. coli, NIHJ): ≤ 0.05 µg/mL; minimum growth inhibitory concentration (MIC) (S. epidermidis, 56500): ≤ 0.05 µg/mL; minimum growth inhibitory concentration (MIC) (Str. pyogenes, G-36): 0.39 µg/mL; minimum growth inhibitory concentration (MIC) (S. aureus, 209P): ≤ 0.05 µg/mL; minimum growth inhibitory concentration (MIC) (Sh. flexneri, 2a5503): ≤ 0.05 µg/mL; minimum growth inhibitory concentration (MIC) (Ps. maltophilia, IID1275): 0.20 µg/mL
CCn1cc(C(=O)O)c(=O)c2cc(F)c(N3CCC(C4(N)CC4)C3)c(F)c21 (stereo not drawn) [Example 16, 7-[3-(1-aminocyclopropyl)-1-pyrrolidinyl]-1-ethyl-6,8-difluoro-1,4-dihydro-4-oxoquinoline-3-carboxylic acid]	0.2 (≈ 0.53 µM)	0.39 (≈ 1.03 µM)	–	≤ 0.05	0.78 (≈ 2.07 µM)	0.39 (≈ 1.03 µM)	–	0.2 (≈ 0.53 µM)	0.2 (≈ 0.53 µM)	≤ 0.05	≤ 0.05	0.39 (≈ 1.03 µM)	–	0.39 (≈ 1.03 µM)	0.39 (≈ 1.03 µM)	1.56 (≈ 4.13 µM)	–	–	–	–	–

From patent US5416222A, “3-pyrrolidine methanamines wherein the alpha-carbon is substituted by 1 or 2 lower alkyl groups which are intermediates for pyridone-carboxylic acid derivatives” (Daiichi Seiyaku Co., Ltd., priority 1985, dated 1995)
